Data set [1] relates to THP-1 cells (β2 integrins). The settings on record: soluble peptide. The method, then:
In FIG. 2(A), phorbol ester-activated THP-1 cells were allowed to bind for 60 min to microtiter wells coated with LLG-C4-GST, GST, or albumin. EDTA was included at a 2.5 mM concentration. The bound cells were determined by the assay measuring cellular phosphatase activity. The data are the means ±SD from triplicate wells.
In FIG. 2(B), THP-1 cells were mixed with each antibody against the β1, β2, β3, αL, αM, or αX integrin subunit as indicated at a concentration of […]. An aliquot of cells was then transferred to wells coated with LLG-C4-GST and incubated for 60 min at 37° C. Following washing the bound cells were determined by the phosphatase assay. The results are the mean % adhesion ±SD of 2–4 independent experiments each done in triplicate wells.
In FIG. 3(A), TBP-1 cells were mixed in suspension with the peptide containing either the C(1–8;3–9) or C(1–9;3–8) disulfide. The final concentrations of the peptides are indicated. Cells were then incubated for 60 min at 37° C. in microtiter wells coated with LLG-C4-GST. After washing the wells, the bound cells were quantitated by the phosphatase assay. The results are the mean ±SD from triplicate wells.
In FIG. 3(B), THP-1 cell binding to LLG-C4-GST was examined in the presence of the C(1–8;3–9), CLLGC (SEQ ID NO: 4) or the CAAGC (SEQ ID NO: 5) peptide. The synthetic peptides were used at the concentrations indicated. Following a 60 min incubation the wells were washed and the bound cells were determined by the phosphatase assay.
Fibrinogen, fibronectin, von Wrlnebrand factor, type IV collagen, GST fusion proteins, Fc fusion proteins or synthetic peptides were coated on microtiter wells at a concentration of 2 μg in 50 μl TBS unless otherwise indicated. A recombinant von Willebrand factor and a capturing antibody to it kindly provided by Drs. J. J. Sixma and Ph. G. de Groot (University Medical Center Utrecht, the Netherlands) were also used. To prepare polymerized peptides, glutaraldehyde was added at a final concentration of 0.25%. The wells were saturated with 5% BSA and then washed five times with PBS. Prior to adhesion assays, cells were treated with 50 nM 40-Phorbol 12,13-dibutyrate or with 200 μM P1 peptide (Kotovuori et al., 1999) in serum-free medium for 30 min at room temperature to activate the integrins. Alternatively, cells were stimulated for 60 min at 37° C. with the phorbol ester (50 nM) and the C(1–8;3–9) and RGD-4C peptides each at a 2.5 μM concentration, after which the peptides were removed by washing with PBS/2.5 mM EDTA. Cells were incubated in the microtiter wells (100 000 cells per well) for 60 min at 37° C. in the absence or presence of competing peptides, antibodies or EDTA. Unbound cells were removed by gently washing with PBS and pressing the plate against paper towels. The bound cells were determined by an assay measuring cellular phosphatase activity. Briefly, 100 μl of 50 mM sodium acetate buffer, pH 5.0, containing 1% Triton X-100 and 6 mg/ml p-nitrophenyl phosphate was added per well and incubated for 1 h at 37° C. The reaction was stopped with 50 μl of 1 M NaOH. The absorbance at 405 nm was read on a microplate reader. Alternatively, the attached cells were stained with Crystal Violet essentially as described (Mould et al., 1995).

The subject of data set [2] is αLβ2 integrin-mediated binding of Jurkat cells to ICAM-1-Fc. Put plainly: Jurkat cell adhesion to ICAM-1-Fc. Format: cell-based. The method, then:
In FIG. 4(A), Jurkat cells were allowed to attach to immobilized ICAM-1-Fc in microtiter wells in the absence or presence of LLG-C4 peptides. Following a 45 min incubation, the unbound cells were removed by immersing the microtiter plate upside down on a decanter containing PBS, and the attached cells were stained with Crystal Violet.
(§1) Fibrinogen, fibronectin, von Wrlnebrand factor, type IV collagen, GST fusion proteins, Fc fusion proteins or synthetic peptides were coated on microtiter wells at a concentration of 2 μg in 50 μl TBS unless otherwise indicated. A recombinant von Willebrand factor and a capturing antibody to it kindly provided by Drs. J. J. Sixma and Ph. G. de Groot (University Medical Center Utrecht, the Netherlands) were also used. To prepare polymerized peptides, glutaraldehyde was added at a final concentration of 0.25%. The wells were saturated with 5% BSA and then washed five times with PBS. Prior to adhesion assays, cells were treated with 50 nM 40-Phorbol 12,13-dibutyrate or with 200 μM P1 peptide (Kotovuori et al., 1999) in serum-free medium for 30 min at room temperature to activate the integrins. […] The bound cells were determined by an assay measuring cellular phosphatase activity. […] The absorbance at 405 nm was read on a microplate reader. […]

Data set [3] concerns THP-1 cells on von Willebrand factor. It counts as cell-based. The conditions noted are these: phorbol ester-activated THP-1; read-out: IC50, inhibition of THP-1 cell binding to von Willebrand factor. The method, then: In FIG. 5(A), THP-1 cell binding to von Wirebrand factor was examined in the presence of antibodies against the β2 (7E4), αvβ3 (LM609) or αIIbβ3 (P2) integrins. Following a 60 min incubation in von Willebrand factor-coated wells, the bound cells were determined. The data are the mean ±SD of triplicate wells. The experiment was repeated three times.
(§2) In FIG. 5(B), TRP-1 cells were allowed to bind to microtiter wells coated with von Willebrand factor, type IV collagen, or fibronectin. The C(1–8;3–9) peptide was included as a competitor in the concentrations described. The bound cells were determined by the phosphatase assay. The data are the mean ±SD of triplicate wells and were similar in four other experiments.
as §1, with “integrins. Alternatively, cells were stimulated for 60 min at 37° C. with the phorbol ester (50 nM) and the C(1–8;3–9) and RGD-4C peptides each at a 2.5 μM concentration, after which the peptides were removed by washing with PBS/2.5 mM EDTA. Cells were incubated in the microtiter wells (100 000 cells per well) for 60 min at 37° C. in the absence or presence of competing peptides, antibodies or EDTA.” for “integrins.”

For data set [4], the system named is THP-1 cells on type IV collagen. Put plainly: THP-1 cell adhesion on type IV collagen. It counts as cell-based. The conditions noted are these: phorbol ester-activated THP-1; read-out: IC50, inhibition of THP-1 adhesion on type IV collagen. The method, then:
as §2, §1

Data set [5] in a line: Water solubility of the peptides. Format: physicochemical. The settings on record: compared with the C(1–9;3–8) peptide.
In data set [6] the test system is T cells binding to Eahy926 endothelial cells (ICAM-1). Put plainly: T cell binding to TNF-α-stimulated endothelial cell monolayer. It counts as cell-based. The conditions noted are these: peptide 50 μM, 45 min. The protocol:
In FIG. 4(B), T cells were allowed to bind to TNF-α-stimulated Eahy endothelial cell monolayers that were grown on microtiter wells. LLG-C4 or RGD-4C was included at a concentration of 50 μM. After a 45 min incubation, the unbound cells were removed by immersing the microtiter plate in a PBS solution, and the bound T cells were determined by the phosphatase assay. The data are the mean ±SD of triplicate wells.
To study T cell binding to an endothelial cell monolayer, Eahy926 endothelial cells were plated on microtiter plates at a density of 5×10^4 cells per well and grown for three days. To stimulate the production of ICAM-1, the cells were further grown for 16 h in the presence of TNF-α at a concentration of 10 ng/ml. T cells (1.5×10^5 per well) were allowed to bind to Eahy926 cells first for 30 min at 4° C., then 15 min at 37° C. The unbound T cells were removed by immersing the microtiter plate up side down in PBS. The bound cells were determined by the phosphatase assay.

Data set [7] has as its system THP-1 cells on fibrinogen. Put plainly: THP-1 cell adhesion to fibrinogen. It counts as cell-based. The protocol:
Following a 60 min incubation the bound cells were determined by the phosphatase assay. The results are the mean ±SD of triplicate wells and were similar in two other experiments.
In FIG. 6(B), to activate integrins, THP-1 cells were stimulated both with phorbol ester (50 nM) and the RGD-4C and C(1–8;3–9) peptides (each 2.5 μM for 1 h. After washing the cells were allowed to bind to fibrinogen-coated wells in the presence of C(1–8;3–9) or RGD-4C or both peptides at the concentrations indicated. After a 30-min incubation the bound cells were determined. The results are the mean ±SD of triplicate wells and were similar in two other experiments. At some data points the SD values are too small to be seen.
as §1, with “0.25%.” for “0.25%. The wells were saturated with 5% BSA and then washed five times with PBS. Prior to adhesion assays, cells were treated with 50 nM 40-Phorbol 12,13-dibutyrate or with 200 μM P1 peptide (Kotovuori et al., 1999) in serum-free medium for 30 min at room temperature to activate the integrins.”

In data set [8] the test system is THP-1 cells. Put plainly: THP-1 cell adhesion on wells coated with synthetic peptides. It counts as cell-based. The method, then: In FIG. 2(C), the C(1–8;3–9) and C(1–9;3–8) peptides were coated on microtiter wells by incubating overnight at a concentration of 40 μg/ml in TBS in the absence or presence of glutaraldehyde. Free binding sites on plastic were then blocked with 5% BSA. THP-1 cells ([…]) were allowed to bind for 60 min at 37° C. […] The experiment was repeated twice.
as §1

Data set [9] concerns THP-1 cells. Put plainly: Transwell cell migration assay, fibrinogen-coated filters. It counts as cell-based. The settings on record: peptide 200 μM, 10% serum, 18 h. The method, then:
In FIG. 6(C), Transwell filters were coated both on the upper and lower surface with fibrinogen, or left uncoated, and then saturated with BSA. TBP-1 cells (5×10^4 per filter) were plated on the upper surface of the filter in 10% serum-containing medium. The concentrations of C(1–8;3–9) and C(1–9;3–8) were 200 μM. Following a 18 hour-culture, the cells migrated underneath the filter were determined. The cells were fixed, stained, and then counted under a microscope.
The in vitro migration of THP-1 cells was studied in closely physiological conditions containing 10% serum to not interfere with adhesive properties of cells. Both the upper and lower surfaces of 8 μm pore size Transwell filters were coated with fibrinogen, LLG-C4-GST, or GST at a concentration of 40 μg/ml overnight at 4° C. Free binding sites were blocked by incubation with 5% BSA/TBS. THP-1 cells (5×10^4 in 100 μl) were plated on the upper compartment in 10% FCS-containing medium. The C(1–8;3–9) or C(1–9;3–8) peptide were included at a concentration of 200 μM. The lower compartment was filled with 750 μl of 10% FCS-containing medium. Following a culture for 18 h at 37° C. the filters were immersed in methanol for 15 min, in water for 10 s, and in 0.1% toluidine blue for 5 min. […] Cells were removed from the upper surface of the filter with a cotton swap, and cells migrated on the lower surface were counted microscopically. […]

pIC50: −log10 of the molar value. Bridge positions count the residues as written; N and C are the ends. Peptide text beside a SMILES is read from it.

These results are taken from patent US7205383B2, “Peptide ligands of leukocyte integrins” (Karyon-CTT Ltd., priority 2001, dated 2007).

As to `CC(C)C[C@@H]1NC(=O)[C@H](CC(C)C)NC(=O)[C@H](Cc2ccccc2)NC(=O)[C@@H]2CSSC[C@@H](C(=O)O)NC(=O)[C@H](CSSC[C@H](N)C(=O)N3CCC[C@H]3C(=O)N2)NC(=O)CNC1=O` [C(1–8;3–9), CPCFLLGCC] (H-CPCFLLGCC-OH; disulfide 1-8, 3-9; N-terminus and C-terminus assumed), the pIC50 in data set [1] (read-out: IC50, inhibition of THP-1 cell adhesion on LLG-C4-GST, 60 min at 37° C.) is 4.70; in data set [2] (ICAM-1-Fc directly coated or captured via protein A, read-out: IC50, inhibition of Jurkat cell adhesion to ICAM-1-Fc), approximately 4.10; in [3], approximately 4.70; in data set [4] it was approximately 3.70. The water solubility result in data set [5] is on record as “poorer water solubility”.

As for “ACDCRGDCFCG [RGD-4C, RGD-containing peptide, ligand of several β1 and β3 integrins, reference compound]”, in data set [6], the “effect on T cell binding to TNF-α-stimulated endothelial cells” value was “no effect”. For the same compound, in data set [7] (cells pre-stimulated with phorbol ester (50 nM) and RGD-4C and C(1–8;3–9) each 2.5 μM, 30-min incubation), the “inhibition of THP-1 adhesion on fibrinogen after peptide pre-stimulation” value is recorded as “more effectively than C(1–8;3–9)”.

Turning to “CPCFLLGCC [C(1–9;3–8), LLG-C4 conformer with disulfide bridges C1–C9 and C3–C8]”, the “fold less active than C(1–8;3–9), THP-1 adhesion on LLG-C4-GST” value in [1] came to 20 fold. In the data set on THP-1 cells [8] (peptide coated at 40 μg/ml in presence of glutaraldehyde), the “THP-1 cell binding to coated peptide crosslinked with glutaraldehyde” value is recorded as “gave no cell binding”. Further, in the data set with THP-1 cells [8] (peptide coated at 40 μg/ml, without glutaraldehyde), the “THP-1 cell binding to coated peptide” value is “failed to bind”. For the same compound, in [2] (compared with C(1–8;3–9)), the “inhibition of Jurkat cell adhesion to ICAM-1-Fc” value is “several fold less active and had hardly any effect”. The “inhibition of THP-1 adhesion to fibrinogen” value in data set [7] (phorbol ester-stimulated THP-1, 60 min) is recorded as “no effect”. For the same compound, in the data set on THP-1 cells [9], the “inhibition of THP-1 cell migration through fibrinogen-coated filter” value is “inhibited only partially”.

One may read the pIC50 as the negative decadic logarithm of the IC50, by convention in mol/L.
